Reference: ChEMBL document CHEMBL1124722, “Synthesis and anticonvulsant activity of 2-benzylglutarimides” (J Med Chem, 1990)
Calls of active or inactive are those of the source. No cut-off for these calls is given here.

Legend:
[1] = tested on: Mus musculus; assay: Anticonvulsant activity against subcutaneous administered Metrazol induced seizures (scMET) after 4 hr; Not active up to 300 mg/kg; format: functional, organism-based; parameters: dose 300 mg/kg
[2] = tested on: Mus musculus; assay: Anticonvulsant activity against maximal electroshock induced seizures (MES) after 0.5 h; Not active up to 300 mg/kg; format: functional, organism-based; parameters: dose 300 mg/kg
[3] = tested on: Mus musculus; assay: Anticonvulsant activity against maximal electroshock induced seizures after 4 hr; Not active up to 300 mg/kg.; format: functional, organism-based; parameters: dose 300 mg/kg
[4] = tested on: Mus musculus; assay: Anticonvulsant activity against subcutaneous administered Metrazol induced seizures (scMET) after 0.5 hr; Not active up to 300 mg/kg; format: functional, organism-based; parameters: dose 300 mg/kg
[5] = tested on: Mus musculus; assay: The Neurologic toxicity by measuring rotarod test after 4 hr at 300 mg/kg; Active; format: organism-based; parameters: dose 300 mg/kg; details: in vivo
[6] = tested on: Mus musculus; assay: The Neurologic toxicity by measuring rotarod test after 0.5 hr at 300 mg/kg; Active; format: organism-based; parameters: dose 300 mg/kg; details: in vivo
[7] = tested on: Mus musculus; assay: Anticonvulsant activity against maximal electroshock induced seizures (MES) after 0.5 hr at 100 mg/kg; Active; format: functional, organism-based; parameters: dose 100 mg/kg
[8] = tested on: Mus musculus; assay: Anticonvulsant activity against subcutaneous administered Metrazol induced seizures (scMET) after 0.5 hr at 300 mg/kg; Active; format: functional, organism-based; parameters: dose 300 mg/kg
[9] = tested on: Mus musculus; assay: Anticonvulsant activity against subcutaneous administered Metrazol induced seizures (scMET) after 4 hr at 100 mg/kg; Active; format: functional, organism-based; parameters: dose 100 mg/kg
[10] = tested on: Mus musculus; assay: The effective dose of compound was tested against maximal electroshock induced seizures after intraperitoneal administration; format: functional; details: ip
[11] = organism: Mus musculus; assay: Time of peak effect was determined for toxicity; format: organism-based; parameters: unit not given here; details: in vivo
[12] = tested on: Mus musculus; assay: The effective dose of compound was tested against subcutaneous administered Metrazol induced seizures after intraperitoneal administration; format: functional
[13] = tested on: Mus musculus; assay: (§1) The Neurologic toxicity by measuring rotarod test after 0.5 h; Not active up to 300 mg/kg; format: organism-based; parameters: dose 300 mg/kg; details: in vivo
[14] = tested on: Mus musculus; assay: (§2) The Neurologic toxicity by measuring rotarod test after 4 hr; Not active up to 300 mg/kg; format: organism-based; parameters: dose 300 mg/kg; details: in vivo
[15] = The cytotoxicity after intraperitoneal administration; format: organism-based; details: mouse, in vivo, ip
[16] = Protective index was calculated (TD50/ED50) in MES assay in mice after intraperitoneal administration; format: functional
[17] = Protective index was calculated (TD50/ED50) in scMET assay in mice after intraperitoneal administration; format: functional
[18] = organism: Mus musculus; assay: Time of peak effect was determined for activity in MES; format: functional; parameters: unit not given here
[19] = tested on: Mus musculus; assay: The effective dose of compound was tested against subcutaneous administered Metrazol induced seizures after intraperitoneal administration.; format: functional
[20] = Protective index was calculated (TD50/ED50) in MES assay in mice after intraperitoneal administration; […]; format: functional, organism-based
[21] = tested on: Mus musculus; assay: Anticonvulsant activity against maximal electroshock induced seizures (MES) after 0.5 hr at 300 mg/kg; Active; format: functional, organism-based; parameters: dose 300 mg/kg
[22] = tested on: Mus musculus; assay: Anticonvulsant activity against subcutaneous administered Metrazol induced seizures (scMET) after 4 hr up to 300 mg/kg; format: functional, organism-based; parameters: dose 300 mg/kg
[23] = tested on: Mus musculus; assay: The Neurologic toxicity by measuring rotarod test after 0.5 h up to 300 mg/kg; format: functional, organism-based; parameters: dose 300 mg/kg
[24] = tested on: Mus musculus; assay: The Neurologic toxicity by measuring rotarod test after 4 hr up to 300 mg/kg; format: functional, organism-based; parameters: dose 300 mg/kg
[25] = organism: Mus musculus; assay: (§3) Time of peak effect activity against maximal electroshock induced seizures; format: functional
[26] = organism: Mus musculus; assay: Median hypnotic dose by loss of righting reflex; format: functional
[27] = tested on: Mus musculus; assay: The compound was tested for anticonvulsant activity against (subcutaneous administered) Metrazol induced seizures after intraperitoneal administration; format: functional
[28] = tested on: Mus musculus; assay: The compound was tested for anticonvulsant activity against (subcutaneous administered) strychnine induced seizures after intraperitoneal administration; format: functional
[29] = organism: Mus musculus; assay: Median lethal dose was measured after 24 hr; format: functional
[30] = tested on: Mus musculus; assay: The effective dose of compound was tested against maximal electroshock induced seizures after oral administration in mice; format: functional
[31] = organism: Mus musculus; assay: Time of peak effect toxicity against maximal electroshock induced seizures; format: organism-based; details: in vivo
[32] = tested on: Rattus norvegicus; assay: The effective dose of compound was tested against subcutaneous administered Metrazol induced seizures in rat.; format: functional; details: sc
[33] = tested on: Mus musculus; assay: The effective dose of compound was tested against subcutaneous administered Metrazol induced seizures in mice; format: functional; details: sc
[34] = tested on: Mus musculus; assay: Anticonvulsant activity against subcutaneous administered Metrazol induced seizures (scMET) after 0.5 hr at 100 mg/kg; Active; format: functional, organism-based; parameters: dose 100 mg/kg
[35] = tested on: Mus musculus; assay: The effective dose of compound was tested against maximal electroshock induced seizures after intraperitoneal administration.; format: functional; details: ip
[36] = organism: Mus musculus; assay: as §3; format: ADME, organism-based; details: in vivo
[37] = organism: Mus musculus; assay: Median hypnotic dose by loss of righting reflex.; format: functional
[38] = Median lethal dose was measured after 24 hr.; format: organism-based; details: mouse, in vivo
[39] = tested on: Mus musculus; assay: The effective dose of compound was tested against maximal electroshock induced seizures after oral administration in mice.; format: functional
[40] = tested on: Rattus norvegicus; assay: The effective dose of compound was tested against maximal electroshock induced seizures after oral administration in rat.; format: functional
[41] = tested on: Mus musculus; assay: as §1; format: functional, organism-based; parameters: dose 300 mg/kg
[42] = tested on: Mus musculus; assay: as §2; format: functional, organism-based; parameters: dose 300 mg/kg
[43] = tested on: Mus musculus; assay: The effective dose of compound was tested against maximal electroshock induced seizures after intraperitoneal administration; no protection up to 1050 mg/kg; format: functional, organism-based; parameters: dose 1050 mg/kg
[44] = tested on: Mus musculus; assay: Anticonvulsant activity against maximal electroshock induced seizures (MES) after 4 hr at 300 mg/kg; Active; format: functional, organism-based; parameters: dose 300 mg/kg
[45] = tested on: Mus musculus; assay: Anticonvulsant activity against subcutaneous administered Metrazol induced seizures (scMET) after 0.5 hr at 30 mg/kg; Active; format: functional, organism-based; parameters: dose 30 mg/kg
[46] = tested on: Mus musculus; assay: Anticonvulsant activity against subcutaneous administered Metrazol induced seizures (scMET) after 4 hr at 300 mg/kg; Active; format: functional, organism-based; parameters: dose 300 mg/kg
[47] = tested on: Mus musculus; assay: The Neurologic toxicity by measuring rotarod test after 4 hr; No toxicity up to 300 mg/kg; format: organism-based; parameters: dose 300 mg/kg; details: in vivo
[48] = tested on: Mus musculus; assay: The effective dose of compound was tested against subcutaneous administered Metrazol induced seizures after intraperitoneal administration;NE=Not effective; format: functional, organism-based
[49] = tested on: Rattus norvegicus; assay: The effective dose of compound was tested against subcutaneous administered Metrazol induced seizures in rat; NE=Not effective; format: functional, organism-based
[50] = The cytotoxicity after intraperitoneal administration in rat.; format: organism-based; details: in vivo, ip

Structure (SMILES)	Activity [1]	Activity [2]	Activity [3]	Activity [4]	Toxicity [6]	TPE [11]	ED50 [12] [mg/kg]	Toxicity [13]	Toxicity [14]	TD50 [15] [mg/kg]	Ratio [17]	TPE [18]	further results
O=C1CCC(Cc2ccccc2Br)C(=O)N1 (stereo not given)	inactive	inactive	inactive	inactive	Active								Toxicity [5]: Active
CN1C(=O)CCC(Cc2ccccc2Br)C1=O (stereo not given)			inactive			0.5	256	Not Active	Not Active	617	2.41	1	Activity [7]: Active; Activity [8]: Active; Activity [9]: Active; ED50 [10]: 474 mg/kg; Ratio [16]: 1.3
O=C1CCC(Cc2ccc(Cl)cc2Cl)C(=O)N1 (stereo not given)		inactive	inactive		Active	0.5				687	4.29	1	Activity [8]: Active; Activity [9]: Active; ED50 [19]: 160 mg/kg; Toxicity [5]: Active; Ratio [20]: inactive
O=C1CCC(Cc2ccccc2)C(=O)N1 (stereo not given)			inactive	inactive									Activity [21]: Active; Activity [22]: inactive; Toxicity [23]: inactive; Toxicity [24]: inactive
CCCC(CCC)C(=O)O [VALPROIC ACID]							149						Activity [25]: 0.25; HD50 [26]: 885.53 mg/kg; ED50 [27]: 149 mg/kg; ED50 [10]: 272 mg/kg; ED50 [28]: 293 mg/kg; LD50 [29]: 1100 mg/kg; ED50 [30]: 665 mg/kg; Time of peak effect [31]: 0.25; ED50 [32]: 180 mg/kg; ED50 [33]: 388 mg/kg
CN1C(=O)CCC(Cc2ccc(Cl)cc2)C1=O (stereo not given)	inactive		inactive		Active	1	124		Not Active	348	2.81	0.5	Activity [21]: Active; Activity [34]: Active; ED50 [10]: 248 mg/kg; Ratio [16]: 1.4
CN1C(=O)CCC(Cc2ccc(Br)cc2)C1=O (stereo not given)	inactive		inactive			1.5	143	Not Active	Not Active	534	3.72	1	Activity [21]: Active; Activity [34]: Active; ED50 [10]: 162 mg/kg; Ratio [16]: 3.8
CCC1(C)CC(=O)NC1=O (stereo not given) [ETHOSUXIMIDE]													ED50 [35]: > 1000 mg/kg; ED50 [19]: 130 mg/kg; Activity [36]: 0.5; HD50 [37]: 850.61 mg/kg; ED50 [27]: 130 mg/kg; LD50 at 24 h [38]: 1750 mg/kg; ED50 [39]: > 2000 mg/kg; Time of peak effect [31]: 0.5; ED50 [40]: > 1200 mg/kg; ED50 [32]: 54 mg/kg; ED50 [33]: 192 mg/kg
O=C1CCC(Cc2ccc(F)cc2)C(=O)N1 (stereo not given)	inactive		inactive		Active				Not Active				Activity [8]: Active
C[Si](C)(C)c1ccc(CC2CCC(=O)NC2=O)cc1 (stereo not given)	inactive	inactive	inactive	inactive									Toxicity [41]: inactive; Toxicity [42]: inactive
O=C1CCC(Cc2ccc(Cl)c(Cl)c2)C(=O)N1 (stereo not given)	inactive	inactive	inactive	inactive				Not Active	Not Active				
CN1C(=O)CCC(Cc2ccc([Si](C)(C)C)cc2)C1=O (stereo not given)	inactive	inactive	inactive	inactive									Toxicity [41]: inactive; Toxicity [42]: inactive
CN1C(=O)CCC(Cc2ccc(Cl)cc2Cl)C1=O (stereo not given)		inactive	inactive			2	153	Not Active	Not Active	650	4.24	0.5	Activity [34]: Active; Activity [9]: Active; ED50 [43]: no protection up to 1050 mg/kg
O=C1CCC(Cc2ccc(-c3ccccc3)cc2)C(=O)N1 (stereo not given)	inactive	inactive	inactive	inactive				Not Active	Not Active				
CCCOc1ccc(CC2CCC(=O)NC2=O)cc1 (stereo not given)	inactive	inactive	inactive	inactive	Active								Toxicity [5]: Active
CC(C)Oc1ccc(CC2CCC(=O)NC2=O)cc1 (stereo not given)	inactive	inactive	inactive	inactive	Active								Toxicity [5]: Active
CN1C(=O)CCC(Cc2ccccc2)C1=O (stereo not given)	inactive	inactive	inactive					Not Active	Not Active				
O=C1CCC(Cc2ccc(Br)cc2)C(=O)N1 (stereo not given)					Active		56.3			513	9.11		Activity [21]: Active; Activity [44]: Active; Activity [45]: Active; Activity [46]: Active; TPE [25]: 1; ED50 [10]: 279 mg/kg; TPE [31]: 1; Toxicity [47]: No toxicity up to 300 mg/kg; Ratio [16]: 1.84
O=C1NC(=O)C(c2ccccc2)(c2ccccc2)N1 [PHENYTOIN]						2						2	ED50 [48]: inactive; Activity [25]: 2 h; HD50 [37]: 178.34 mg/kg; LD50 at 24 h [38]: 230 mg/kg; Time of peak effect [31]: 2 h; ED50 [49]: inactive; TD50 [50]: > 3000 mg/kg
CN1C(=O)CCC(Cc2ccc(C(F)(F)F)cc2)C1=O (stereo not given)		inactive						Not Active	Not Active				Activity [44]: Active; Activity [8]: Active; Activity [46]: Active
O=C1CCC(Cc2ccc(C(F)(F)F)cc2)C(=O)N1 (stereo not given)					Active	1	119			349	2.92	2	Activity [21]: Active; Activity [44]: Active; Activity [34]: Active; Activity [46]: Active; ED50 [10]: 126 mg/kg; Toxicity [5]: Active; Ratio [16]: 2.76
CN1C(=O)CCC(Cc2ccc(I)cc2)C1=O (stereo not given)		inactive	inactive					Not Active	Not Active				Activity [45]: Active; Activity [46]: Active
